Data on 10 compounds can be found in ChEMBL document CHEMBL1201862, “PubChem BioAssay data set” (2004).

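A five-concentration, 48-hour dose response in 96-well plates underlies each endpoint, interpolated linearly between surrounding concentrations. GI50 = concentration required for 50% inhibition of growth.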 Calls of active or inactive are those of the source. Rule as the data show it: active = GI50 up to about 1.1 µM and inactive = higher.

What all share (test): growth of human tumour cells (NCI), 48 h
The test system of assay [1] is NCI-H460.
In assay [2] the test system is CAKI-1.
In assay [3] the test system is SR.
The test system of assay [4] is HT-29.
Assay [5] relates to HCT-15.
For assay [6], the system named is OVCAR-8.
Assay [7] concerns Malme-3M.
Assay [8] concerns OVCAR-4.
The subject of assay [9] is NCI-H23.
For assay [10], the system named is NCI-H226.
The test system of assay [11] is UACC-62.
The test system of assay [12] is SF-295.
Assay [13] deals with EKVX.
The subject of assay [14] is SNB-19.
Assay [15] deals with SK-MEL-28.
In assay [16] the test system is LXFL 529.
Assay [17] has as its system OVCAR-5.
Assay [18] deals with KM-20L2.
The test system of assay [19] is Hs-578T.
Assay [20] deals with DU-145.

As to `COc1ccc(OC)c(-c2cc(O)c3cc4c(cc3n2)OCO4)c1`, the GI50 in assay [1] is 3.41 µM (inactive); in assay [2], 4.12 µM (inactive); in assay [3], 3.96 µM (inactive); in assay [4], 4.12 µM (inactive); in [5] it was 4.22 µM; in assay [6], 9.59 µM (inactive). For the same compound, the GI50 was 3.49 µM (inactive) in assay [7]; 35.6 µM (inactive) in [8]; 3.44 µM (inactive) in assay [9]; 7.38 µM (inactive) in [10]; 3.58 µM (inactive) in [11]; 4.15 µM (inactive) in assay [12]. Further, the GI50 is 37.4 µM (inactive) in [13]; 18.5 µM (inactive) in assay [14]; 5.87 µM (inactive) in [15]; 6.92 µM (inactive) in [16]; 8.53 µM (inactive) in [17]; 4.14 µM (inactive) in assay [18].

`COc1cc(C2=NN(C)C(c3ccc([N+](=O)[O-])o3)C2)cc(OC)c1OC` (configuration not stated): the GI50 was 41.9 µM (inactive) in assay [1]; > 100 µM (inactive) in assay [2]; 0.0736 µM (active) in [3]; 72.4 µM (inactive) in assay [4]; 18.2 µM in [5]; > 100 µM (inactive) in [6]. For the same compound, the GI50 in [7] was > 100 µM (inactive); in assay [8], 91.4 µM (inactive); in assay [9] it was > 100 µM (inactive); in assay [10], > 100 µM (inactive); in [11], 83.2 µM (inactive); in assay [12] it was > 100 µM (inactive). Also, the GI50 is > 100 µM (inactive) in assay [13]; > 100 µM (inactive) in assay [14]; 79.8 µM (inactive) in assay [15]; 38.5 µM (inactive) in [16]; > 100 µM (inactive) in [17]; > 100 µM (inactive) in assay [18].

Turning to `CC1=C(C(=O)Nc2ccc(C)cc2)C(c2cccc([N+](=O)[O-])c2)C(C(=O)Nc2ccc(C)cc2)=C(C)N1`, the GI50 in assay [1] is 19.7 µM (inactive); in [2], 27.9 µM (inactive); in assay [3], 21.2 µM (inactive); in [4], 17.2 µM (inactive); in assay [5], 26.2 µM; in assay [6], 40 µM (inactive). Also, the GI50 is 28.2 µM (inactive) in assay [7]; 12.2 µM (inactive) in assay [8]; 25.2 µM (inactive) in [9]; 69.5 µM (inactive) in [10]; 13.3 µM (inactive) in assay [11]; 28.1 µM (inactive) in [12]. The GI50 was 17.1 µM (inactive) in [13]; 28.1 µM (inactive) in assay [14]; 28.8 µM (inactive) in assay [15]; 27.7 µM (inactive) in [16]; 53.2 µM (inactive) in assay [17]; 19.4 µM (inactive) in [18].

With `COc1c(OC(C)=O)cc2c(OC(C)=O)c1CC(C)CC(OC)C(O)C(C)/C=C(\C)C(OC(N)=O)C(OC)/C=C\C=C(/C)C(=O)N2` (configuration not stated), the GI50 in assay [1] is > 100 µM (inactive); in [2], > 100 µM (inactive); in [3], > 44.2 µM (inactive); in assay [4], > 81.8 µM (inactive); in [5] it was over 64.7 µM; in assay [6], > 65 µM (inactive). Further, the GI50 in assay [7] is 98.9 µM (inactive); in [8], > 100 µM (inactive); in assay [9] it was > 100 µM (inactive); in assay [10], > 100 µM (inactive); in [11], > 100 µM (inactive); in assay [12], > 100 µM (inactive). In addition, the GI50 in assay [13] is > 100 µM (inactive); in [14], > 100 µM (inactive); in [15] it was > 100 µM (inactive); in assay [16], 49 µM (inactive); in assay [17], > 100 µM (inactive); in assay [18], > 62.1 µM (inactive).

As for `O=C(CCl)Nc1ccc(C(=O)N/N=C/c2ccc(Cl)cc2)cc1`, the GI50 in assay [1] is 2 µM (inactive); in assay [2] it was 2.82 µM (inactive); in assay [3] it was 1.79 µM (inactive); in [4], 1.67 µM (inactive); in assay [5] it was 4.63 µM; in assay [6], 2.29 µM (inactive). Further, the GI50 in assay [7] was 2.01 µM (inactive); in assay [19], 2.82 µM (inactive); in assay [8], 2.09 µM (inactive); in assay [9] it was 2.44 µM (inactive); in [10] it was 18.6 µM (inactive); in [20], 3.02 µM (inactive). Moreover, the GI50 in assay [11] is 3.56 µM (inactive); in assay [12] it was 4.06 µM (inactive); in assay [13], 2.19 µM (inactive); in [14] it was 7.41 µM (inactive); in [15], 5.68 µM (inactive); in assay [16], 1.71 µM (inactive). Besides, the GI50 in assay [17] was 18.8 µM (inactive); in [18], 11.9 µM (inactive).

For `O=[N+]([O-])c1ccc(Cl)c(C2CC(c3cccc4ccccc34)=Nc3ccccc3[S+]2[O-])c1` (configuration not stated), the GI50 in assay [1] was 19.4 µM (inactive); in assay [2] it was 13.2 µM (inactive); in assay [3], 10.5 µM (inactive); in assay [4], 10.9 µM (inactive); in [5], 13.6 µM; in assay [6], 8.77 µM (inactive). Also, the GI50 was 18.9 µM (inactive) in [7]; 22 µM (inactive) in [8]; 8.75 µM (inactive) in assay [9]; 21.7 µM (inactive) in assay [10]; 10.6 µM (inactive) in [11]; 18.2 µM (inactive) in assay [12]. Besides, the GI50 was > 57.5 µM (inactive) in assay [13]; 29 µM (inactive) in assay [14]; 19.4 µM (inactive) in assay [15]; 13.3 µM (inactive) in assay [16]; 29.5 µM (inactive) in assay [17]; 20.2 µM (inactive) in [18].

Consider `Cc1cccc(C)c1N1C(=O)C(=O)C(c2nc3ccccc3s2)/C(=N/c2cccc3c(=O)[nH][nH]c(=O)c23)C1=O` (configuration not stated), for which the GI50 is > 100 µM (inactive) in assay [1]; > 100 µM (inactive) in assay [2]; 99.5 µM (inactive) in assay [3]; > 100 µM (inactive) in assay [4]; over 100 µM in assay [5]; > 100 µM (inactive) in [6]. Also, the GI50 in assay [7] is > 100 µM (inactive); in [8] it was 79.3 µM (inactive); in assay [9] it was > 100 µM (inactive); in [10], > 100 µM (inactive); in assay [11], > 100 µM (inactive); in [12], > 100 µM (inactive). Further, the GI50 in assay [13], in [14], in assay [15], in [16], in assay [17] and in assay [18] was > 100 µM (inactive) in each case.

On to `COc1ccc(OC)c(NC(=O)CCC/C(CC(=O)c2ccc(O)c(OC)c2)=N\Nc2nnc(C)n2N)c1`, for which the GI50 in assay [1] was > 100 µM (inactive); in [2] it was > 100 µM (inactive); in assay [3], > 100 µM (inactive); in assay [4] it was > 100 µM (inactive); in [5], over 100 µM; in assay [6], > 100 µM (inactive). Besides, the GI50 in [7], in [8], in [9], in assay [10], in assay [11] and in assay [12] was > 100 µM (inactive) in each case. The GI50 in [13], in assay [14], in assay [15], in [16], in assay [17] and in assay [18] was > 100 µM (inactive) each time.

Turning to `CC(C)(C)c1nc2c(o1)/C(=N\c1ccccc1)c1ccccc1C2=O`, the GI50 is 6.12 µM (inactive) in assay [1]; 12 µM (inactive) in assay [2]; 3.94 µM (inactive) in [3]; 22.7 µM (inactive) in [4]; 4.25 µM in [5]; 2.72 µM (inactive) in [6]. Moreover, the GI50 was 1.4 µM (inactive) in [7]; 2.74 µM (inactive) in assay [8]; 1.44 µM (inactive) in assay [9]; 9.42 µM (inactive) in [10]; 2.17 µM (inactive) in assay [11]; 3.99 µM (inactive) in assay [12]. Further, the GI50 in assay [13] is 13 µM (inactive); in assay [14], 8.17 µM (inactive); in assay [15], 4.4 µM (inactive); in [16], 5.48 µM (inactive); in assay [17] it was 13.6 µM (inactive); in [18] it was 27.8 µM (inactive).

With `Cc1ccc(Nc2nc(C)c(C(/C=C/c3ccc(/C=C/C(=N/NC(=O)C[n+]4ccccc4)c4sc(Nc5ccc(C)cc5[N+](=O)[O-])nc4C)cc3)=N\NC(=O)C[n+]3ccccc3)s2)c([N+](=O)[O-])c1`, the GI50 in [1] was > 100 µM (inactive); in assay [2] it was 48.6 µM (inactive); in [3], 67.3 µM (inactive); in assay [4], > 100 µM (inactive); in assay [5] it was 88.1 µM; in assay [6], > 100 µM (inactive). Also, the GI50 in assay [7] was > 100 µM (inactive); in assay [8], > 100 µM (inactive); in [9] it was > 100 µM (inactive); in [10] it was 14.6 µM (inactive); in assay [11], 20.6 µM (inactive); in assay [12] it was > 100 µM (inactive). For the same compound, the GI50 was 78.3 µM (inactive) in assay [13]; > 100 µM (inactive) in assay [14]; > 100 µM (inactive) in assay [15]; 95.7 µM (inactive) in [16]; 50.8 µM (inactive) in assay [17]; > 100 µM (inactive) in [18].
